For orientation: melting point means the temperature of the solid-liquid transition. For orientation: CC50 means the concentration giving 50% cytotoxicity. The low end stands for greater toxicity to the cells, the high end for lower toxicity to the cells.

The text below walks through data of patent publication US7585861B2, “HIV inhibiting 1,2,4-triazines” (Janssen Pharmaceutica, N.V., priority 2003, dated 2009).

Molecules are shown by their SMILES.

Series [1] is described as follows: Test B: cytotoxicity in mock-infected MT-4 cells engineered with GFP under a constitutional promoter. The series is classed as cell-based. The note with it: human. Here is the method: (§1) An […] T4-cell line, MT-4, which was previously shown (Koyanagi et al., Int. J. Cancer, 36, 445-451, 1985) to be highly susceptible to and permissive for HIV infection, served as the target cell line. In these cells, engineered with GFP (and an HIV-specific promotor), ongoing HIV-infection was measured fluorometrically. Cytotoxicity is measured in the same cells, but engineered with GFP under a constitutional promoter. The infection (or inhibition thereof) of HIV infected cells and the flourescence of mock-infected cells is assessed by the fluorescent GFP signal generated by the two above mentioned cell lines.

Series [2] has as its system HIV. Kind of series: Test B: HIV infection measured fluorometrically in MT-4 cells engineered with GFP (HIV-specific promotor). The series is classed as cell-based. The note with it: Human immunodeficiency virus 1, MT4. Here is the method:
as §1

In series [3] the test system is HIV. Kind of series: Test A: inhibition of the HIV-induced cytopathic effect in MT-4 cells (MTT). The series is classed as cell-based. On the procedure: (§2) A rapid, sensitive and automated assay procedure was used for the in vitro evaluation of anti-HIV agents. An […] T4-cell line, MT-4, which was previously shown (Koyanagi et al., Int. J. Cancer, 36, 445-451, 1985) to be highly susceptible to and permissive for HIV infection, served as the target cell line. Inhibition of the HIV-induced cytopathic effect was used as the end point. The viability of both HIV- and mock-infected cells was assessed spectrophotometrically via the in situ reduction of 3-(4,5-dimethylthiazol-2-yl)-2,5-diphenyltetrazolium bromide (MTT). […] The percent protection achieved by the compound in HTV-infected cells was calculated by the following formula:
(§3) [formula] whereby (ODT)HIV is the optical density measured with a given concentration of the test compound in HIV-infected cells; (ODC)HIV is the optical density measured for the control unteated HIV-infected cells; (ODC)MOCK is the optical density measured for the control untreated mock-infected cells; all optical density values were determined at 540 nm. […] The ratio of CC50 to IC50 was defined as the selectivity index (SI).
(In general: Cytopathic effects are the visible damage that an infection or toxin causes in cultured cells.)

Series [4] is described as follows: Test A: cytotoxicity in mock-infected MT-4 cells (MTT). The series is classed as cell-based. The conditions noted are these: human. Here is the method: as §2, §3
The subject of another series is mock-infected MT-4 cells. Kind of series: Test B: cytotoxicity in mock-infected MT-4 cells engineered with GFP under a constitutional promoter. Type of series: cell-based. On the procedure: as §1
Where [5] appears, read: Human immunodeficiency virus 1, MT4, read-out: pIC50 (converted).

Molecule `N#C/C=C/c1cc(F)c(Nc2nnc(Cl)c(Nc3ccc(C#N)cc3)n2)c(F)c1` [Compound 62] showed a melting point of 276 to 277 °C. This molecule had a CC50 in series [1] of 25100 nM. Besides, the IC50 with HIV [2] was 3.16 nM.
The molecule `Cc1cc(/C=C/C(N)=O)cc(C)c1Oc1nc(Nc2ccc(C#N)cc2)nnc1C` [Compound 48] had a CC50 in series [1] of 25100 nM. This molecule gave an IC50 in the series on HIV [2] of 0.631 nM.
Consider `Cc1cc(C)c(Nc2nc(Nc3ccc(C#N)cc3)nnc2Cl)c(C)c1` [Compound 44], for which the IC50 in the series on HIV [3] (Human immunodeficiency virus 1, MT4, read-out: pIC50 (M) (converted)) was 2.51e-09 M. This molecule also had a CC50 in series [4] above 25100 nM.
In the case of `COc1cc(OC)c(Nc2cnnc(Nc3ccc(C#N)cc3)n2)c(OC)c1` [Compound 36], in the series with HIV [3] (setting [5]), the IC50 was 5.01e-10 M. In series [4] (mock-infected MT-4 cells), the CC50 is above 100000 nM.
On to `Cc1cc(/C=C/C(N)=O)cc(C)c1Nc1nc(Nc2ccc(C#N)cc2)nnc1C` [Compound 58], for which it took 10000 nM to reach half-maximal cytotoxicity in series [1] (CC50). In the series with HIV [2], this molecule gave an IC50 of 251 nM.
Take `Cc1cc(C#N)cc(C)c1Nc1cnnc(Nc2ccc(C#N)cc2)n1` [Compound 1]: in the series on HIV [3] (setting [5]), the IC50 was 2e-09 M. Also, the CC50 in series [4] (mock-infected MT-4 cells) is above 100000 nM.
Consider `N#CCCc1cc(Cl)c(Nc2nnc(Cl)c(Nc3ccc(C#N)cc3)n2)c(Br)c1` [Compound 75], for which the melting point was in the range of 252 to 254 °C. For the same molecule, the CC50 in series [1] is above 25100 nM. In the series with HIV [2], this molecule showed an IC50 of 3.16 nM.
Molecule `Cc1cc(CCC#N)cc(C)c1Nc1nnc(Cl)c(Nc2ccc(C#N)cc2)n1` came in with a melting point of 266 to 267 °C.
As to `N#CCCc1cc(Cl)c(Nc2nnc(Cl)c(Nc3ccc(C#N)cc3)n2)c(Cl)c1` [Compound 74], the melting point is 256 to 257 °C. This molecule also had a CC50 in series [1] above 25100 nM. Besides, the IC50 in the series with HIV [2] was 5.01 nM.
Regarding `Cc1cc(C#N)cc(C)c1Oc1nc(Nc2ccc(C#N)cc2)nnc1Cl` [Compound 3], in the series with HIV [3] (setting [5]), the IC50 was 5.01e-09 M. In series [4] (mock-infected MT-4 cells), the cytotoxic concentration (CC50) is above 100000 nM.
As to `N#Cc1ccc(Nc2cnnc(Nc3c(F)cc(I)cc3F)n2)cc1` [Compound 63], the PCC50 in the series on mock-infected MT-4 cells is 4.9.
`Cc1cc(/C=C/C(=O)N(C)C)cc(C)c1Oc1nc(Nc2ccc(C#N)cc2)nnc1C` [Compound 50] displayed a PCC50 in the series on mock-infected MT-4 cells of 4.7.
